Assay results reported in patent US20120301551A1, “COMPOUNDS AND COMPOSITIONS FOR TREATING NEURONAL DEATH OR NEUROLOGICAL DYSFUNCTION” (Neurotech Pharmaceuticals Co., Ltd., priority 2005, published 2012).
Where “and” joins values, the source holds several entries; their conditions need not be identical. Equal values may be shown once.

Tests used:
[1] = test system: mesencephalic nerve cell cultures; assay: dopaminergic nerve cell death by LPS in mesencephalic cultures ([3H]DA uptake); assay type: cell-based; conditions: 5 ng/ml LPS; 0-100 uM; 7 days
Experimental: Mesencephalic nerve cell cultures were pre-treated with 5 ng/ml of LPS for 30 minutes to make a cull culture model of Parkinson's disease, and then 0-100 uM of chemical 01 were added. 7 days after administration, [^3H]DA uptake was evaluated to quantify the death of the nerve cell (mean±SEM, n=4 culture well/each group).

[2] = test system: APPswe/PS1deltaE9 double transgenic mice; assay: amyloid plaque burden in APPswe/PS1deltaE9 double transgenic mice (Thioflavin-S); assay type: in vivo, mouse
Experimental: The treatment with 25 mg/kg/day of chemical 01 for 7 months (from 3.5 to 10.5 month-old APP/PS1) caused a significant 53% reduction in amyloid plaque burden compared to APP/PS1 dementia mouse fed with general chow only.
10.5 month-old APPswe/PS1deltaE9 double transgenic mice were fed chow alone (saline only), or containing 25 mg/kg/day of chemical—01, for 7.5 months before being sacrificed (3˜10.5 month). 18-20 μm brain sections stained 1% Thioflavin-S for 5 min and observed under fluorescence microscope system.

[3] = test system: reactive oxygen species (ROS) in cortical cell cultures; assay: ROS production in cortical cell cultures exposed to FeCl2 (DCF fluorescence); assay type: cell-based; conditions: 1 uM; 50 uM FeCl2
Experimental: It was evaluated whether chemical 01 suppresses reactive oxygen species (ROS) increased by FeCl2. Cortical cell cultures (DIV 11-14) were continuously exposed to 50 uM FeCl2 alone or with inclusion of 1 uM of chemical 01. Then, the fluorescent intensity of 6-carboxy-2′,7′-dichlorofluorescin diacetate (oxidation product of DCDHF-DA) was evaluated (mean±SEM, n=3).

[4] = test system: TNF-α; assay: LPS-induced TNF-α production in BV2 cells; assay type: cell-based; conditions: 100 uM; 1 ug/ml LPS, 4 hours
Experimental: Suppressing effects of chemical 01 in BV2 cell lines on production of IL-1β, IL-6 or TNF-α were evaluated. BV2 cells were exposed to 1 ug/ml LPS (inflammation-inducing material) with inclusion of chemical 01 at indicated doses. After 4 hours, supernatant were collected and concentrations of TNF-a were evaluated. In addition, BV2 cells were treated by the same method, and 24 hours later, supernatant were collected and concentrations of IL-1β and IL-6 were evaluated (mean±SEM, n=3). BV2 cells treated with LPS only were used as control.

[5] = test system: APPswe/PS1deltaE9 double transgenic mice; assay: open field activity in APPswe/PS1deltaE9 double transgenic mice; assay type: in vivo, mouse; conditions: 25 mg/kg/day chemical 01 or 62.5 mg/kg/day ibuprofen for 14.5 months (3~17.5 months)
Experimental: After administration of drug for 14.5 months, Open field activity test was performed to evaluate locomotor activity and exploratory behavior. 4×4 of scale marks were drawn in white acryl box having a size of 60 cm×60 cm×35 cm (width×length×height) to make sixteen squares. Four squares in the center became center zone and twelve squares around the center zone became peripary zone. Mice were laid into transparent acryl tube (diameter: about 3.5 inches) laid at the left corner of the acryl box for 30 seconds. After 30 seconds, acryl tube was removed to make mouse free. Experiment was once performed for each mouse for 5 minutes. The distance traveled in the open field was recorded (mean±SEM, n=3-5).
17.5 month-old APPswe/PS1deltaE9 double transgenic mice were fed chow alone (saline only), or containing 25 mg/kg/day of chemical—01, for […] (3˜17.5 month).
Open field activity was used to evaluate locomotor activity and exploratory behavior. The distance traveled in the open field was recorded and performance was analyzed after the testing took place.

[6] = test system: C57/BL6 mice; assay: microglia activation in MPTP mouse model of Parkinson's disease (CD11b); assay type: in vivo; conditions: 50 mg/kg intraperitoneal, MPTP 40 mg/kg s.c., two days
Experimental: MPTP (40 mg/kg) was subcutaneously injected into C57/BL6 mice (male/8 week-old). Some of the mice were administered with 50 mg/kg of chemical 01 through intraperitoneal injection 30 minutes before the injection of MPTP everyday. Two days later, brain tissue was extracted and immunostained with CD11b. After reaction, DAB (diaminobenzidine) was used for chromograph, and then the activation degree of microglia (a marker of inflammation in brain disease model) was evaluated with optical microscope (FIG. 14E).

[7] = test system: Fas-FADD interaction; assay: Fas-FADD interaction in serum-deprived neuron-rich cultures (immunoprecipitation, Western blot); assay type: cell-based, mouse; conditions: deprived of serum for 8 hr
Experimental: (§1) (B) Neuron-rich cortical cell cultures (DIV 7) were deprived of serum, alone or with addition of 100 μM zVADfmk, 1 μM 2-hydroxy TTBA, or 5 mM Li^+. Neuronal death was analyzed 24 hr later by counting viable neurons excluding trypan (mean±SEM, n=4). *, Significant difference from the relevant control (serum deprivation alone), p<0.05 using ANOVA and Student-Neuman-Keuls test. (C) Western blot analysis of FADD antibody following immunoprecipitation with Fas antibody in the same samples above.
(§2) Additional experiments were performed to examine if targeting both neuronal cell necrosis and apoptosis would result in synergic neuroprotection in […] transgenic mice. […] Neuronal cell apoptosis was induced by serum deprivation in neuron-rich cortical cell cultures as reported, which was prevented by addition of 5 mM Li^+ as well as zVADfmk, a broad spectrum inhibitor of caspases (FIG. 5B). […] Additional experiments were performed to examine if Li^+ would prevent Fas signaling pathway. […] This implies that 2-Hydroxy-TTBA and Li^+ blocks oxidative neuronal cell necrosis and apoptosis, respectively.

[8] = test system: neuron-rich cortical cell cultures; assay: serum deprivation-induced neuronal cell apoptosis; assay type: cell-based, mouse; conditions: 24 hr, 5 mM Li^+, 100 μM zVADfmk, 1 μM 2-hydroxy TTBA
Experimental: as §1, §2

[9] = test system: G93A transgenic mice; assay type: in vivo, mouse
Experimental: Animals were daily fed with 2-hydroxy TTBA (30 mg/kg/d), 0.2% lithium carbonate (200 mg/kg/d, Li), or a combination of both (2-hydroxy TTBA+Li) from 8 weeks of age in diet.
Animals were daily fed with 2-hydroxy TTBA (30 mg/kg/d), 0.2% lithium carbonate (Li), or a combination of both (2-hydroxy TTBA+Li) from 8 weeks of age in diet.
C & D: (C) Bright-field photomicrographs of cresyl violet-stained ventral horn sections from the wild type (a), or G93AA transgenic mice treated with vehicle (b), or with a combination of 2-hydroxy TTBA+Li (c) at 16 weeks of age.

[10] = 2-hydroxy TTBA 30 mg/kg/d, 0.2% lithium carbonate, or both, in diet from 8 weeks of age, n=13

Compound: O=C(O)c1cc(NCCc2ccc(C(F)(F)F)cc2)ccc1O [chemical 01, 2-Hydroxy-5-[2-(4-trifluoromethyl-phenyl)-ethylamino]-benzoic acid]
- dopaminergic nerve cell death caused by LPS [1]: dose-dependent manner
- reduction in amyloid plaque burden ([2]; 25 mg/kg/day for 7 months (from 3.5 to 10.5 month-old)): 53%
- reduction in plaque burden ([2]; 25 mg/kg/day for 7.5 months (3~10.5 month)): 53.4%
- reduction in amyloid plaque burden ([2]; 25 mg/kg/day, from 8.5 to 12.5 month-old (4 months)): 49.3%
- production of ROS in cell increased by FeCl2 [3]: suppressed
- decrease of TNF-α released into media [4]: ~70%
- open field activity (distance traveled) [5]: reduced significantly
- activity of microglia caused by MPTP [6]: decreased

Compound: O=C(O)c1cc(NCc2c(F)c(F)c(C(F)(F)F)c(F)c2F)ccc1O [2-Hydroxy-TTBA, 2-hydroxy-5-(2,3,5,6-tetrafluoro-4-trifluoromethyl-benzylamino)-benzoic acid]
- Fas-FADD interaction, effect in words [7]: not
- serum deprivation-induced neuronal cell apoptosis, effect in words [8]: not attenuated
- serum deprivation-induced neuronal cell apoptosis, effect in words ([8]; listed as 2-hydroxy TTBA): not
- Mortality (survival) [9, 10]: 143.8 days and 143.8^a ± 2.83 days
- Onset from PaGE [9, 10]: 114.1 days and 114.1^a ± 2.02 days
- Onset from Rotarod [9, 10]: 112.3 days and 112.3^a ± 2.89 days
- weight loss, % of the wild type ([9]; G93A mice at 18 weeks of age, oral administration in diet): 41%
- extension reflex, motor strength, and coordination ([9]; G93A mice, drug in diet): improved
- degeneration (loss) of ventral motor neurons in lumbar spinal cord ([9]; at 16 weeks of age): 57%
- motor performance versus vehicle-treated control ([9]; from 11 weeks to 18 weeks, in the diet): better motor performance
